In patent publication US11058756B2, “Compositions and methods of treating autoimmune disease by reducing enterococcus” (YALE UNIVERSITY, priority 2017, dated 2021):
Entries after “also recorded” stand apart in the source; their conditions may differ.

How the values were obtained:
Th17 and Tfh cells = experiment: Th17/Tfh cell frequencies (FACS) and splenocyte cytokines (LEGENDplex) after antibiotic treatment in vivo; set-up: species or system mouse
Text: (§1) Mice were cohoused for 3 to 4 weeks before antibiotic treatment to allow for equilibration of the microbiota. Single antibiotic or broad-spectrum antibiotic administration consisted of metronidazole (1 g/liter; Fisher Scientific), neomycin (1 g/liter; Fisher Scientific), ampicillin (1 g/liter; Sigma) and vancomycin (0.5 g/liter; Acros Organics) in the drinking water for up to 22 weeks or a targeted regiment for 2 weeks and then replaced with regular water for the duration of the experiment. For broad-spectrum antibiotic experiments (vancomycin, ampicillin, metronidazole, and neomycin combined), sweetener (Equal, 4 g/L) was added to both the antibiotics and control water due to the metallic taste of metronidazole. Twenty-four hours after cessation of antibiotic water, mice were administered 1×10^6 CFUs of vancomycin-resistant E. gallinarum via oral gavage, isolated from liver tissue of a vancomycin-treated mouse that continued to show signs of autoimmune disease (high-level resistance was confirmed by vanC gene PCR). E. gallinarum was grown at 37° C. in Gifu Anaerobic Broth (HIMEDIA Laboratories) to early stationary phase under anaerobic conditions (82% N2, 15% CO2, 3% H2 by volume) in an anaerobic chamber and diluted in PBS to 10^7 CFUs.
Cytokine levels were determined from culture supernatants using LEGENDplex™ (BioLegend), a bead-based immunoassay. The preformed mouse T helper cytokine panel was used. […]
For direct ex vivo intracellular cytokine detection, cells isolated from small intestinal lamina propria, MLN or spleen were immediately treated with GolgiStop (BD Bioscience) and surface-stained in FACS buffer (PBS, 2% bovine serum albumin, 0.2 mg of sodium azide, 2 mM EDTA) for 30 minutes in the dark at room temperature with fluorescently conjugated antibodies specific for CD3, CD4, CD11b, CD11c, CD44, CD62L, CD19, CD45, CD45R (B220), CXCR5, GITR, IL-17, IFN-g, Ly6C, NK1.1, PDCA-1, PD-1 and PSGL-1. […] Cell viability was assessed with Zombie NIR Fixable Viability Kit (BioLegend).

(NZWxBXSB)F1 mice = experiment: Oral antibiotics in drinking water: mortality, clinical outcome, proteinuria and organ histology in the autoimmune hybrid model; format: in vivo, mouse
Text: 6-week-old male (NZWxBXSB)F1 mice and C57BL/6J mice were used in this study except if noted otherwise. (NZWxBXSB)F1 were bred by mating NZW/LaJ females with BXSB/MpJ males obtained from Jackson Laboratory (Bar Harbor, Me., USA). Parental littermates of (NZWxBXSB)F1 were randomly mixed with littermates from other parental cages 21 days after birth to equilibrate the microbiomes from different cages and parental origin. All mice were maintained in a specific-pathogen-free environment. (NZWxBXSB)F1 mice were provided with water and a standard laboratory diet ad libitum (2018 Harlan Teklad, South Easton, Mass., USA). They were supplied with hardwood chips as bedding and were housed in a temperature-controlled, air-conditioned room on a 12-hr light-dark cycle. Germ-free (GF) C57BL/6 mice were kept under sterile conditions in CBC's (Class Biologically Clean, Madison, Wis., USA) Quad flexible film isolators (Softwall), exposed to a 12-hr light/dark cycle and provided standard, autoclaved tap water and mouse chow (2018S Harlan Teklad, South Easton, Mass., USA) ad libitum. To exclude a Th17 bias, a PCR for segmented filamentous bacteria (SFB) was performed on fecal DNA from all mice involving Th17 studies. Fecal SFB detection at 6-8 weeks of age that correlates with ileal SFB colonization was performed as described (Barman et al., 2008, Infect Immun, 76, 907-915; Kriegel et al., 2011, Proc Natl Acad Sci USA, 108, 11548-11553). All Th17 data was derived from SFB-negative animals.
as §1
Samples were obtained at autopsy and fixed in 10% neutral formalin, and histological sections were stained with hematoxylin and eosin (H&E) and scored in a blinded fashion. Glomerulonephritis was scored on a scale of 0-4 based on the intensity and extent of histopathological changes (Klopfleisch, 2013, BMC Vet Res, 9, 123). A grade of 0 was given to kidneys without glomerular lesions; grade 1 consisted of minimal thickening of the mesangium; grade 2 contained noticeable increases in both mesangial and glomerular cellularity; grade 3 was characterized by the preceding conditions with superimposed inflammatory exudates and capsular adhesions; and grade 4 consisted of obliterated glomerular architecture in greater than 70% of glomeruli. […]

E. gallinarum = experiment: Assessment of bacterial translocation and tissue burden (anaerobic tissue cultures, CFU); format: in vivo, mouse; settings: FIG. 1K-1N
Text: Mice were cohoused for 3 to 4 weeks before antibiotic treatment to allow for equilibration of the microbiota. Single antibiotic or broad-spectrum antibiotic administration consisted of metronidazole (1 g/liter; Fisher Scientific), neomycin (1 g/liter; Fisher Scientific), ampicillin (1 g/liter; Sigma) and vancomycin (0.5 g/liter; Acros Organics) in the drinking water for up to 22 weeks or a targeted regiment for 2 weeks and then replaced with regular water for the duration of the experiment. For broad-spectrum antibiotic experiments (vancomycin, ampicillin, metronidazole, and neomycin combined), sweetener (Equal, 4 g/L) was added to both the antibiotics and control water due to the metallic taste of metronidazole. […] E. gallinarum was grown at 37° C. in Gifu Anaerobic Broth (HIMEDIA Laboratories) to early stationary phase under anaerobic conditions (82% N2, 15% CO2, 3% H2 by volume) in an anaerobic chamber and diluted in PBS to 10^7 CFUs.
14-, 16- and 18-week-old mice underwent sterile laparotomy and nose, mouth, small intestine (luminal and adherent fractions), mesenteric veins, mesenteric lymph nodes (MLN), liver and spleen were aseptically collected in BBL Mycoflask Thioglycollate (Fluid) Prepared Media (BD Diagnostic Systems) and incubated for 72 hours in anaerobic conditions at 37° C. Gifu Media Agar plates were streaked with the content from the BBL Mycoflask Thioglycollate and incubated for 48 hours in an anaerobic chamber at 37° C. Colony Formation Units (CFU) were counted and concentration determined per milligram of tissue. Single colonies were grown in Gifu anaerobic media for 48 hours in an anaerobic chamber at 37° C. and aliquots from each sample were collected and centrifuge for 10 minutes at 10000×g. DNA was extracted from bacterial pellets using DNeasy Blood and Tissue kit (Qiagen) and submitted to PCR amplification of the 16S region and Sanger sequencing. In addition, purified DNA was used for eubacterial, Enterococcus genus and Enterococcus gallinarum PCR assays.

CN[C@H](CC(C)C)C(=O)N[C@H]1C(=O)N[C@@H](CC(N)=O)C(=O)N[C@H]2C(=O)N[C@H]3C(=O)N[C@H](C(=O)N[C@H](C(=O)O)c4cc(O)cc(O)c4-c4cc3ccc4O)[C@H](O)c3ccc(c(Cl)c3)Oc3cc2cc(c3O[C@@H]2O[C@H](CO)[C@@H](O)[C@H](O)[C@H]2O[C@H]2C[C@](C)(N)[C@H](O)[C@H](C)O2)Oc2ccc(cc2Cl)[C@H]1O [vancomycin]
Tfh cells (Th17 and Tfh cells; MLN of (NZWxBXSB)F1 mice treated via drinking water, FIG. 19C): reduced; also recorded: suppresses | Th17 cells (Th17 and Tfh cells; spleen and MLN of (NZWxBXSB)F1 mice, SFB-negative, treated via drinking water, FIG. 19): reduced; also recorded: suppresses | cytokine signatures (inflammatory cytokines in splenocyte supernatants) (Th17 and Tfh cells; splenocytes stimulated with anti-CD3/anti-CD28 for 3 days, FIG. 19A): reduced; also recorded: suppresses | Mortality ((NZWxBXSB)F1 mice; single antibiotic in drinking water from 6 weeks of age, followed for 30 weeks or until death, FIG. 1A): prevented | autoimmune manifestations (proteinuria, organ histology scores) ((NZWxBXSB)F1 mice; single antibiotic in drinking water, FIG. 1D-1I): prevented | Translocation (bacterial growth in mesenteric veins, MLN, liver, spleen) (E. gallinarum; (NZWxBXSB)F1 mice, antibiotics in drinking water, 16-18 weeks of age): reduced | suppression of growth of E. gallinarum in tissues, VANC compared to NEO-treated animals (E. gallinarum; mesenteric veins, MLN, liver, spleen, P=0.0337 and P<0.005): significantly higher
